Experiment [1] deals with T1, NLRP3 (Homo sapiens, UniProt Q96P20). Put plainly: Human whole blood IL1β release assay. Format: cell-based. The following applies: LPS 1 μg/ml, nigericin 10 μM, IL-1β AlphaLisa, 10 μM top dose (Example 2: top dose of 30 μM), read-out: HWB IC50. The method, then:
For systemic delivery, the ability to inhibit NLRP3 when the compounds are present within the bloodstream is of great importance. For this reason, the NLRP3 inhibitory activity of a number of compounds in human whole blood was investigated in accordance with the following protocol.
Human whole blood in sodium-heparin or lithium-heparin tubes was obtained from healthy donors from a volunteer donor panel. • 1. Plate out 80 μl of whole blood containing 1 μg/ml of LPS in 96-well, clear bottom cell culture plate (Corning #3585) • 2. Add 10 μl compound (8 points half-log dilution with 10 μM top dose, unless stated otherwise) or vehicle (DMSO 0.1% FAC) to the appropriate wells • 3. Incubate for 3 hrs at 37° C., 5% CO2 • 4. Add 10 μl nigericin (Sigma #N7143) (10 μM FAC) to all wells • 5. Incubate for 1 hr at 37° C., 5% CO2 • 6. At the end of the incubation period, spin plates at 300×g for 5 mins to pellet cells and remove 20 μl of supernatant and add to 96-well v-bottom plates for IL-1β analysis (note: these plates containing the supernatants can be stored at −80° C. to be analysed at a later date) • 7. IL-1β was measured according to the manufacturer protocol (Perkin Elmer-AlphaLisa IL-1 Kit AL220F-5000) • 8. IC50 data is fitted to a non-linear regression equation (log inhibitor vs response-variable slope 4-parameters)

For experiment [2], the target named is T1, NLRP3. Put plainly: THP-1 cells pyroptosis assay. It is filed as cell-based. More on the design: Seed THP-1 cells (25,000 cells/well) containing 1.0 μg/ml LPS; host or cells: THP-1. The following applies: LPS 1.0 μg/ml, nigericin 5 μM, resazurin readout, 10 μM top dose (Example 2: top dose of 30 μM). In outline: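 THP-1 cells (25,000/well) primed with 1 μg/ml LPS in serum-free RPMI, treated with compound (8-point dilution, 10 μM top unless stated; 0.1% DMSO) 3 h at 37°C, then nigericin 5 μM 1 h. Viability read by resazurin (100 μM, 1-2 h) fluorescence; IC50 from 4-parameter fit.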

The structures appear in SMILES notation.

T1 sequence (Q96P20 whole entry): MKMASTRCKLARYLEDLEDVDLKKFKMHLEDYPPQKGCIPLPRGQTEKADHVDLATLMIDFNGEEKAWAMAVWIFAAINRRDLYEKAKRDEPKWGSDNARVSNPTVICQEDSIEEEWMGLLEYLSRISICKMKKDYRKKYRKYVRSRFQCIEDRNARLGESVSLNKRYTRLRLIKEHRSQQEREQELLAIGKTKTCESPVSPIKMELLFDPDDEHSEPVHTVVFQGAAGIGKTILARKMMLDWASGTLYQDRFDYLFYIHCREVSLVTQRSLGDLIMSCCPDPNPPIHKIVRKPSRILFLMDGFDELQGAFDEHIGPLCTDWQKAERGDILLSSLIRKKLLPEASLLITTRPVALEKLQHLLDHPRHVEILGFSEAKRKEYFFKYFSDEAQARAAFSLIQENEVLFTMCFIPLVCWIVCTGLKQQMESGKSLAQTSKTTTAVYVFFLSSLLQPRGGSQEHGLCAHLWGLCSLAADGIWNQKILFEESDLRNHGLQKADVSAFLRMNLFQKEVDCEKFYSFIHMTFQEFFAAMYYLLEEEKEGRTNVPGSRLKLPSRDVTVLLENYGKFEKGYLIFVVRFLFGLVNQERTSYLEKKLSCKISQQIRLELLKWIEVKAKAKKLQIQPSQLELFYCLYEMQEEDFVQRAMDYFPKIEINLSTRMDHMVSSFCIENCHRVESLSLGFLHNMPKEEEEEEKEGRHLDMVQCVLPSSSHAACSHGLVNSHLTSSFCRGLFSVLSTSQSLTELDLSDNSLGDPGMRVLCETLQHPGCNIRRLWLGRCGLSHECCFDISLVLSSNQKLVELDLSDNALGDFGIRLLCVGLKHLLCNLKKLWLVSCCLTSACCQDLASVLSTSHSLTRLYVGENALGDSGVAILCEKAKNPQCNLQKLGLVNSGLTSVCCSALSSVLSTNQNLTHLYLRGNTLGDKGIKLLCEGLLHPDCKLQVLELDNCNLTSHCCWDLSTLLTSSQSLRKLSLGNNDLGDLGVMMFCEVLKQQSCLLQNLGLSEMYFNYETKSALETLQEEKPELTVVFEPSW

Take `O=S(=O)(NCCN1CCC1)c1nnc(Nc2c3c(cc4c2CCC4)CCC3)[nH]1` [Example 89, N-(2-(azetidin-1-yl)ethyl)-5-((1,2,3,5,6,7-hexahydro-s-indacen-4-yl)amino)-4H-1,2,4-triazole-3-sulfonamide]: the concentration for half-maximal inhibition (IC50) in experiment [1] was at most 5 µM; in experiment [2], at most 1 µM.

For `CN(C)C1CN(S(=O)(=O)c2nnc(Nc3c4c(cc5c3CCC5)CCC4)[nH]2)C1` [Example 91, 5-((3-(dimethylamino)azetidin-1-yl)sulfonyl)-N-(1,2,3,5,6,7-hexahydro-s-indacen-4-yl)-4H-1,2,4-triazol-3-amine], the IC50 in experiment [1] and in experiment [2] was at most 5 µM in each case.

Consider `CN(C)C1CCN(S(=O)(=O)c2nnc(Nc3c4c(cc5c3CCC5)CCC4)[nH]2)C1` (stereo not drawn) [Example 93, 5-((3-(dimethylamino)pyrrolidin-1-yl)sulfonyl)-N-(1,2,3,5,6,7-hexahydro-s-indacen-4-yl)-4H-1,2,4-triazol-3-amine], for which the IC50 in experiment [1] and in experiment [2] was at most 5 µM in each case.

Consider `CN1CCCC1CNS(=O)(=O)c1nnc(Nc2c3c(cc4c2CCC4)CCC3)[nH]1` (stereo not drawn) [Example 95, 5-((1,2,3,5,6,7-hexahydro-s-indacen-4-yl)amino)-N-((1-methylpyrrolidin-2-yl)methyl)-4H-1,2,4-triazole-3-sulfonamide], for which the values for the 50% inhibitory concentration (IC50) in experiment [1] and in experiment [2] were at most 5 µM and at most 1 µM, respectively.

On to `O=S(=O)(c1nnc(Nc2c3c(cc4c2CCC4)CCC3)[nH]1)N1CCC(N2CCCC2)C1` (stereo not drawn) [Example 104, 5-([1,3′-bipyrrolidin]-1′-ylsulfonyl)-N-(1,2,3,5,6,7-hexahydro-s-indacen-4-yl)-4H-1,2,4-triazol-3-amine], for which the IC50 was at most 5 µM in experiment [1] and at most 0.5 µM in experiment [2].

Consider `O=S(=O)(NCCN1CCCC1)c1nnc(Nc2c3c(cc4c2CCC4)CCC3)[nH]1` [Example 108, 5-((1,2,3,5,6,7-hexahydro-s-indacen-4-yl)amino)-N-(2-(pyrrolidin-1-yl)ethyl)-4H-1,2,4-triazole-3-sulfonamide], for which the 50% inhibitory concentration (IC50) in experiment [1] was at most 5 µM; in experiment [2] it was at most 0.5 µM.

Take `CCN(CC)CCCNS(=O)(=O)c1nnc(Nc2c3c(cc4c2CCC4)CCC3)[nH]1` [Example 109, N-(3-(diethylamino)propyl)-5-((1,2,3,5,6,7-hexahydro-s-indacen-4-yl)amino)-4H-1,2,4-triazole-3-sulfonamide]: the figures for the half-maximal inhibitory concentration (IC50) in experiment [1] and in experiment [2] were at most 1 µM and at most 0.5 µM, respectively.

Regarding `CC(C)N(CCNS(=O)(=O)c1nnc(Nc2c3c(cc4c2CCC4)CCC3)[nH]1)C(C)C` [Example 110, N-(2-(diisopropylamino)ethyl)-5-((1,2,3,5,6,7-hexahydro-s-indacen-4-yl)amino)-4H-1,2,4-triazole-3-sulfonamide], the values for the concentration for half-maximal inhibition (IC50) in experiment [1] and in experiment [2] were at most 10 µM and at most 0.5 µM, respectively.

Consider `CC(C)N1CCN(S(=O)(=O)c2nnc(Nc3c4c(cc5c3CCC5)CCC4)[nH]2)CC1` [Example 117, N-(1,2,3,5,6,7-hexahydro-s-indacen-4-yl)-5-((4-isopropylpiperazin-1-yl)sulfonyl)-4H-1,2,4-triazol-3-amine], for which the IC50 in experiment [1] was at most 5 µM; in experiment [2] it was at most 1 µM.

As for `CN(C1CNC1)S(=O)(=O)c1nnc(Nc2c3c(cc4c2CCC4)CCC3)[nH]1` [Example 120, N-(azetidin-3-yl)-5-((1,2,3,5,6,7-hexahydro-s-indacen-4-yl)amino)-N-methyl-4H-1,2,4-triazole-3-sulfonamide], the IC50 in experiment [1] and in experiment [2] was at most 5 µM each time.

For the compound `O=S(=O)(c1nnc(Nc2c3c(cc4c2CCC4)CCC3)[nH]1)N1CCCC1` [Example 122, N-(1,2,3,5,6,7-hexahydro-s-indacen-4-yl)-5-(pyrrolidin-1-ylsulfonyl)-4H-1,2,4-triazol-3-amine], the half-inhibitory concentration (IC50) in experiment [1] is at most 10 µM; in experiment [2], at most 5 µM.

For the compound `O=S(=O)(c1nnc(Nc2c3c(cc4c2CCC4)CCC3)[nH]1)N1CCC(N2CCCC2)CC1` [Example 124, N-(1,2,3,5,6,7-hexahydro-s-indacen-4-yl)-5-((4-(pyrrolidin-1-yl)piperidin-1-yl)sulfonyl)-4H-1,2,4-triazol-3-amine], the figures for the IC50 in experiment [1] and in experiment [2] were at most 5 µM and at most 1 µM, respectively.

Consider `CN(C)CCCNS(=O)(=O)c1nnc(Nc2c3c(cc4c2CCC4)CCC3)[nH]1` [Example 125, N-(3-(dimethylamino)propyl)-5-((1,2,3,5,6,7-hexahydro-s-indacen-4-yl)amino)-4H-1,2,4-triazole-3-sulfonamide], for which the values for the 50% inhibitory concentration (IC50) in experiment [1] and in experiment [2] were at most 5 µM and at most 0.5 µM, respectively.

Turning to `O=S(=O)(NCCCN1CCCC1)c1nnc(Nc2c3c(cc4c2CCC4)CCC3)[nH]1` [Example 126, 5-((1,2,3,5,6,7-hexahydro-s-indacen-4-yl)amino)-N-(3-(pyrrolidin-1-yl)propyl)-4H-1,2,4-triazole-3-sulfonamide], the results for the 50% inhibitory concentration (IC50) in experiment [1] and in experiment [2] were at most 5 µM and at most 1 µM, respectively.

With `CN1CCCC(CNS(=O)(=O)c2nnc(Nc3c4c(cc5c3CCC5)CCC4)[nH]2)C1` (stereo not drawn) [Example 128, 5-((1,2,3,5,6,7-hexahydro-s-indacen-4-yl)amino)-N-((1-methylpiperidin-3-yl)methyl)-4H-1,2,4-triazole-3-sulfonamide], the concentration for half-maximal inhibition (IC50) in experiment [1] was at most 10 µM; in experiment [2], at most 1 µM.

Regarding `O=S(=O)(NCC1CCCCN1)c1nnc(Nc2c3c(cc4c2CCC4)CCC3)[nH]1` (stereo not drawn) [Example 132, 5-((1,2,3,5,6,7-hexahydro-s-indacen-4-yl)amino)-N-(piperidin-2-ylmethyl)-4H-1,2,4-triazole-3-sulfonamide], the IC50 in experiment [1] was at most 10 µM; in experiment [2], at most 0.5 µM.

Take `O=S(=O)(c1nnc(Nc2c3c(cc4c2CCC4)CCC3)[nH]1)N1CC(N2CCCCC2)C1` [Example 133, N-(1,2,3,5,6,7-hexahydro-s-indacen-4-yl)-5-((3-(piperidin-1-yl)azetidin-1-yl)sulfonyl)-4H-1,2,4-triazol-3-amine]: the IC50 was at most 10 µM in experiment [1] and at most 0.5 µM in experiment [2].

On to `O=S(=O)(c1nnc(Nc2c3c(cc4c2CCC4)CCC3)[nH]1)N1CC(N2CCCC2)C1` [Example 136, N-(1,2,3,5,6,7-hexahydro-s-indacen-4-yl)-5-((3-(pyrrolidin-1-yl)azetidin-1-yl)sulfonyl)-4H-1,2,4-triazol-3-amine], for which the results for the 50% inhibitory concentration (IC50) in experiment [1] and in experiment [2] were at most 5 µM and at most 0.5 µM, respectively.

With `CN1CC2(C1)CN(S(=O)(=O)c1nnc(Nc3c4c(cc5c3CCC5)CCC4)[nH]1)C2` [Example 137, N-(1,2,3,5,6,7-hexahydro-s-indacen-4-yl)-5-((6-methyl-2,6-diazaspiro[3.3]heptan-2-yl)sulfonyl)-4H-1,2,4-triazol-3-amine], the IC50 in experiment [1] and in experiment [2] was at most 0.5 µM in each case.

`CN1CC2CN(S(=O)(=O)c3nnc(Nc4c5c(cc6c4CCC6)CCC5)[nH]3)CC2C1` (stereo not drawn) [Example 138, N-(1,2,3,5,6,7-hexahydro-s-indacen-4-yl)-5-((5-methylhexahydropyrrolo[3,4-c]pyrrol-2 (1H)-yl)sulfonyl)-4H-1,2,4-triazol-3-amine]: the IC50 in experiment [1] and in experiment [2] was at most 5 µM in each case.

Consider `CN(C)C(=O)C1CCN(S(=O)(=O)c2nnc(Nc3c4c(cc5c3CCC5)CCC4)[nH]2)C1` (stereo not drawn) [Example 139, 1-((5-((1,2,3,5,6,7-hexahydro-s-indacen-4-yl)amino)-4H-1,2,4-triazol-3-yl)sulfonyl)-N,N-dimethylpyrrolidine-3-carboxamide], for which the results for the half-maximal inhibitory concentration (IC50) in experiment [1] and in experiment [2] were at most 10 µM and at most 1 µM, respectively.

With `CN1CCCCC1CNS(=O)(=O)c1nnc(Nc2c3c(cc4c2CCC4)CCC3)[nH]1` (stereo not drawn) [Example 141, 5-((1,2,3,5,6,7-hexahydro-s-indacen-4-yl)amino)-N-((1-methylpiperidin-2-yl)methyl)-4H-1,2,4-triazole-3-sulfonamide], the 50% inhibitory concentration (IC50) in experiment [1] is at most 10 µM; in experiment [2] it was at most 5 µM.

For `CCN(CC)C[C@@H]1CCN(S(=O)(=O)c2nnc(Nc3c4c(cc5c3CCC5)CCC4)[nH]2)C1` [Example 143, (S)-5-((3-((diethylamino)methyl)pyrrolidin-1-yl)sulfonyl)-N-(1,2,3,5,6,7-hexahydro-s-indacen-4-yl)-4H-1,2,4-triazol-3-amine], the IC50 in experiment [1] and in experiment [2] was at most 0.5 µM in each case.

As to `CCN(CC)C[C@H]1CCN(S(=O)(=O)c2nnc(Nc3c4c(cc5c3CCC5)CCC4)[nH]2)C1` [Example 144, (R)-5-((3-((diethylamino)methyl)pyrrolidin-1-yl)sulfonyl)-N-(1,2,3,5,6,7-hexahydro-s-indacen-4-yl)-4H-1,2,4-triazol-3-amine], the IC50 in experiment [1] and in experiment [2] was at most 0.5 µM throughout.

The values are drawn from patent US20210261512A1, “NOVEL COMPOUNDS” (INFLAZOME LIMITED, priority 2018, published 2021).
